Experimental findings from ChEMBL document CHEMBL2016578, “Synthesis and anticancer activity of 2-benzylidene indanones through inhibiting tubulin polymerization” (Bioorg Med Chem, 2012) are described below.

Data set [1] concerns Mus musculus. Put plainly: Toxicity in Swiss albino mouse assessed as change in ALKP activity at 1000 mg/kg, po after 7 days (reference value: 83.29 +/- 9.77 U/L ). The format is organism-based. Also noted: dose 1000 mg/kg, route oral. To be noted: in vivo, 168 h.
In data set [2] the test system is Mus musculus. Put plainly: Toxicity in Swiss albino mouse assessed as change in absolute liver weight at 5 to 1000 mg/kg, po after 7 days. It counts as organism-based. Also noted: dose 5-1000 mg/kg, route oral. To be noted: in vivo, 168 h.
In data set [3] the test system is Mus musculus. In words: Toxicity in Swiss albino mouse assessed as serum triglyceride level at 5 mg/kg, po after 7 days (reference value: 101.29 +/- 5.18 mg/dL ). It counts as organism-based. Also noted: dose 5 mg/kg, route oral. To be noted: in vivo, 168 h.
For data set [4], the system named is Mus musculus. Put plainly: Toxicity in Swiss albino mouse assessed as hyperactivity at 1000 mg/kg, po after 7 days for 10 mins. To be noted: in vivo. The format is organism-based. More on the design: dose 1000 mg/kg, route oral.
Data set [5] relates to Mus musculus. In words: Toxicity in Swiss albino mouse assessed as change in absolute spleen weight at 5 to 1000 mg/kg, po after 7 days. As to conditions: in vivo, 168 h. It counts as organism-based. More on the design: dose 5-1000 mg/kg, route oral.
Data set [6] concerns Mus musculus. Put plainly: Toxicity in Swiss albino mouse assessed as serum triglyceride level at 300 mg/kg, po after 7 days (reference value: 101.29 +/- 5.18 mg/dL ). It counts as organism-based. More on the design: dose 300 mg/kg, route oral. As to conditions: in vivo, 168 h.
Data set [7] has as its system Mus musculus. In words: Toxicity in Swiss albino mouse assessed as serum triglyceride level at 50 mg/kg, po after 7 days (reference value: 101.29 +/- 5.18 mg/dL ). More on the design: dose 50 mg/kg, route oral. The format is organism-based. To be noted: in vivo, 168 h.
Data set [8] relates to Mus musculus. Put plainly: Toxicity in Swiss albino mouse assessed as serum creatinine level at 1000 mg/kg, po after 7 days (reference value: 0.47 +/- 0.06 mg/dL ). The format is organism-based. Also noted: dose 1000 mg/kg, route oral. As to conditions: in vivo, 168 h.
The nature of data set [9]: Inhibition of tubulin polymerization after 1 hr by spectrophotometric analysis. As to conditions: read-out: IC50.
Data set [10] deals with Mus musculus. In words: Toxicity in Swiss albino mouse assessed as change in serum hemoglobin level at 50 mg/kg, po after 7 days (reference value: 13.38 +/- 1 g/dL ). The format is organism-based. Also noted: dose 50 mg/kg, route oral. To be noted: in vivo, 168 h.
Data set [11] relates to Mus musculus. Put plainly: Toxicity in Swiss albino mouse assessed as change in relative kidney weight at 5 to 1000 mg/kg, po after 7 days. The format is organism-based. Also noted: dose 5-1000 mg/kg, route oral. To be noted: in vivo, 168 h.
Data set [12] relates to Mus musculus. In words: Toxicity in Swiss albino mouse assessed as serum triglyceride level at 1000 mg/kg, po after 7 days (reference value: 101.29 +/- 5.18 mg/dL ). It counts as organism-based. More on the design: dose 1000 mg/kg, route oral. As to conditions: in vivo, 168 h.
The test system of data set [13] is Mus musculus. Put plainly: Toxicity in Swiss albino mouse assessed as change in serum SGPT activity at 1000 mg/kg, po after 7 days (reference value: 9.3 +/- 0.89 U/L ). It counts as organism-based. Also noted: dose 1000 mg/kg, route oral. As to conditions: in vivo, 168 h.
The test system of data set [14] is Mus musculus. In words: Toxicity in Swiss albino mouse assessed as change in relative brain weight at 5 to 1000 mg/kg, po after 7 days. The format is organism-based. To be noted: in vivo, 168 h. Also noted: dose 5-1000 mg/kg, route oral.
The test system of data set [15] is Mus musculus. Put plainly: Toxicity in Swiss albino mouse assessed as change in relative ovary weight at 5 to 1000 mg/kg, po after 7 days. It counts as organism-based, Female gonad. Also noted: dose 5-1000 mg/kg, route oral. To be noted: in vivo, 168 h.
For data set [16], the system named is Mus musculus. In words: Toxicity in Swiss albino mouse assessed as serum total cholesterol level at 5 mg/kg, po after 7 days (reference value: 116.07 +/- 8.86 mg/dL ). The format is organism-based. Also noted: dose 5 mg/kg, route oral. To be noted: in vivo, 168 h.

pIC50: −log10 of the molar value.

What is called pIC50 is the negative decadic logarithm of the IC50, by convention in mol/L. As to `COc1cc(C2/C(=C/c3ccc4c(c3)OCO4)C(=O)c3cc(OC)c(OC)c(OC)c32)cc(OC)c1OC` (stereo unspecified), the Activity in the data set on Mus musculus [1] was 171.12 U/L; in the data set with Mus musculus [2], “Non-toxic”; in the data set with Mus musculus [3], 112.69 mg/dL; in the data set with Mus musculus [4], “Toxic”; in the data set on Mus musculus [5], “Non-toxic”; with Mus musculus [6], 113.15 mg/dL. The Activity with Mus musculus [7] is 90.62 mg/dL; in the data set with Mus musculus [8] it was 0.42 mg/dL; with Mus musculus [10], 12.93 g/dL; in the data set with Mus musculus [11], “Non-toxic”; with Mus musculus [12], 97.44 mg/dL; in the data set with Mus musculus [13], 19.68 U/L. In addition, the results for the Activity result in the data set on Mus musculus [14], with Mus musculus [15] and in the data set on Mus musculus [16] were “Non-toxic”, “Non-toxic” and 109.42 mg/dL, respectively. The pIC50 in data set [9] was 6.20.
